Assay results taken from PMC8910009, “Identification of Novel and Potent Indole-Based Benzenesulfonamides as Selective Human Carbonic Anhydrase II Inhibitors: Design, Synthesis, In Vitro, and In Silico Studies” (International Journal of Molecular Sciences, 2022).

Experiments:
hCA IX = hCA IX (Homo sapiens, UniProt Q16790); test: stopped flow CO2 hydrase assay, hCA IX
Protocol: (§1) The tested CA panel was comprised of the two ubiquitously expressed cytosolic hCA I and II isoforms, along with the two tumor-related transmembrane hCA IX and XII isoforms. The activity of the synthesized hybrids was reported as Ki (inhibition constant) to assess their binding affinity. […] The inhibitor and enzyme solutions were first preincubated together for 15 min at room temperature to enable for the generation of the E–I complex. Photophysics stopped-flow instrument was used to measure the CA-catalyzed CO2 hydration activity. Phenol red (at a concentration of 0.2 mM) was added as an indicator after a period of 10–100 s in the CA-catalyzed CO2 hydration reaction at an absorbance maximum of 557 nm, with 20 mM Hepes (pH = 7.4) and 10 mM NaClO4 (to maintain constant ionic strength) [30]. […] In the initial 5–10% of the reaction, at least six traces were examined to determine the initial velocity for each inhibitor. Similarly, the total measured rates were used to measure the uncatalyzed rates [32]. Distilled–deionized water was used in the preparation of the Stock inhibitor solutions (10 mM), as well as dilutions up to 0.01 nM. The inhibition constants were measured utilizing PRISM 3, whereas the Lineweaver–Burk plots were used to measure the kinetic parameters which comprised the mean of at least three separate measurements [33, 34].

hCA I = hCA I (Homo sapiens, UniProt P00915); test: stopped flow CO2 hydrase assay, hCA I
Protocol: as §1

hCA XII = hCA XII (Homo sapiens, UniProt O43570); test: stopped flow CO2 hydrase assay, hCA XII
Chain of hCA XII (O43570 25-354): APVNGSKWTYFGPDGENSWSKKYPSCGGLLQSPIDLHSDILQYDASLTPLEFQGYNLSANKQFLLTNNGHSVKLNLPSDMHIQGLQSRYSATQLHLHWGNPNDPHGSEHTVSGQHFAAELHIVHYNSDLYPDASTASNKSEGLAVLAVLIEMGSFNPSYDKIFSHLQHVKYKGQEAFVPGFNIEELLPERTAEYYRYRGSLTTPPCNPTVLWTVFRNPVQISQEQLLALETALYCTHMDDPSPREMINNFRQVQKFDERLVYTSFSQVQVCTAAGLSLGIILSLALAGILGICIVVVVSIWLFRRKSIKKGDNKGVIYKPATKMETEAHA
Protocol: as §1

hCA II = hCA II (Homo sapiens, UniProt P00918); test: stopped flow CO2 hydrase assay, hCA II
Protocol: as §1

Chain of hCA I (P00915 whole entry): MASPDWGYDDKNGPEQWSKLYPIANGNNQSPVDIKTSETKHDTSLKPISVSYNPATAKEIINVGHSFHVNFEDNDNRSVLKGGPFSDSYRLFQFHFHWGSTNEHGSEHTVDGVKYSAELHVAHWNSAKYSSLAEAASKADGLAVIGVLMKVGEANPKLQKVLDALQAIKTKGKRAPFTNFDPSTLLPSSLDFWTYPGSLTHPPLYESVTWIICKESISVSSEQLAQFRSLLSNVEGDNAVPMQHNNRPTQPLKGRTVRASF

| SMILES | Ki (hCA IX) | Ki (hCA I) | Ki (hCA XII) | Ki (hCA II) | selectivity for hCA II over hCA I (hCA II; ratio of Ki values) | selectivity for hCA II over hCA IX (hCA II; ratio of Ki values) | selectivity for hCA II over hCA XII (hCA II; ratio of Ki values) |
| --- | --- | --- | --- | --- | --- | --- | --- |
| NS(=O)(=O)c1cccc(NC(=O)CCc2c[nH]c3ccccc23)c1 [Compound 2a, 3-(1H-indol-3-yl)-N-(3-sulfamoylphenyl)propanamide] | 206 nM | 79.8 nM | 54.2 nM | 5.9 nM | 13 fold | 34 fold | 9 fold |
| NS(=O)(=O)c1ccc(O)c(NC(=O)CCc2c[nH]c3ccccc23)c1 [Compound 2b, N-(2-hydroxy-5-sulfamoylphenyl)-3-(1H-indol-3-yl)propanamide] | 286 nM | 2800 nM | 85.1 nM | 7.3 nM | – | – | – |
| NS(=O)(=O)c1ccc(CCNC(=O)CCc2c[nH]c3ccccc23)cc1 [Compound 2c, 3-(1H-indol-3-yl)-N-(4-sulfamoylphenethyl)propanamide] | 222 nM | 217 nM | 36.9 nM | 9 nM | – | – | – |
| NS(=O)(=O)c1ccc(NC(=O)CCc2c[nH]c3ccccc23)cc1 [Compound 2d, 3-(1H-indol-3-yl)-N-(4-sulfamoylphenyl)propanamide] | 166 nM | 97.6 nM | 42.2 nM | 7.1 nM | – | – | – |
| NS(=O)(=O)c1cccc(NC(=O)c2ccc3[nH]ccc3c2)c1 [Compound 2e, N-(3-sulfamoylphenyl)-1H-indole-5-carboxamide] | 766 nM | 5570 nM | 90.9 nM | 45.5 nM | – | – | – |
| NS(=O)(=O)c1ccc(NC(=O)c2ccc3[nH]ccc3c2)cc1 [Compound 2f, N-(4-sulfamoylphenyl)-1H-indole-5-carboxamide] | 165 nM | 3110 nM | 257 nM | 16 nM | – | – | – |
| NS(=O)(=O)c1ccc(O)c(NC(=O)c2ccc3[nH]ccc3c2)c1 [Compound 2g, N-(2-hydroxy-5-sulfamoylphenyl)-1H-indole-5-carboxamide] | 280 nM | 4770 nM | 85.3 nM | 680 nM | – | – | – |
| NS(=O)(=O)c1ccc(CCNC(=O)c2ccc3[nH]ccc3c2)cc1 [Compound 2h, N-(4-sulfamoylphenethyl)-1H-indole-5-carboxamide] | 240 nM | 554 nM | 236 nM | 8.6 nM | – | – | – |
| NS(=O)(=O)c1ccccc1NC(=O)c1ccc2[nH]ccc2c1 [Compound 2i, N-(2-sulfamoylphenyl)-1H-indole-5-carboxamide] | 635 nM | 7450 nM | 89.4 nM | 71.9 nM | – | – | – |
| NS(=O)(=O)c1cccc(NC(=O)c2ccc3cc[nH]c3c2)c1 [Compound 2j, N-(3-sulfamoylphenyl)-1H-indole-6-carboxamide] | 654 nM | 5400 nM | 40.5 nM | 94.8 nM | – | – | – |
| NS(=O)(=O)c1ccc(NC(=O)c2ccc3cc[nH]c3c2)cc1 [Compound 2k, N-(4-sulfamoylphenyl)-1H-indole-6-carboxamide] | 428 nM | 4660 nM | 83.8 nM | 833 nM | – | – | – |
| NS(=O)(=O)c1ccc(O)c(NC(=O)c2ccc3cc[nH]c3c2)c1 [Compound 2l, N-(2-hydroxy-5-sulfamoylphenyl)-1H-indole-6-carboxamide] | 423 nM | 4280 nM | 73.7 nM | 682 nM | – | – | – |
| NS(=O)(=O)c1ccc(CCNC(=O)c2ccc3cc[nH]c3c2)cc1 [Compound 2m, N-(4-sulfamoylphenethyl)-1H-indole-6-carboxamide] | 278 nM | 253 nM | 85.1 nM | 38.8 nM | – | – | – |
| NS(=O)(=O)c1ccccc1NC(=O)c1ccc2cc[nH]c2c1 [Compound 2n, N-(2-sulfamoylphenyl)-1H-indole-6-carboxamide] | 487 nM | 7510 nM | 36.9 nM | 670 nM | – | – | – |
| NS(=O)(=O)c1ccc(C(=O)Nc2ccc3[nH]ccc3c2)cc1 [Compound 2o, N-(1H-indol-5-yl)-4-sulfamoylbenzamide] | 170 nM | 56.6 nM | 66.9 nM | 7.5 nM | – | – | – |
